How the values were obtained:
Type in all cases: in vivo
[1] = system: barnyardgrass (Echinochloa crusgalli); test: Test B flooded paddy test, visual plant response rating 0-100; details: 250 g ai/ha, Flood, applied to paddy water, evaluated after 13 days
Outline: (§1)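 Plants were grown to the 2-leaf stage, then pots were flooded to 3 cm above the soil and test compounds were applied directly into the paddy water. Water depth was held there throughout; after 13 days in a greenhouse, injury was scored visually against untreated controls.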

[2] = system: ducksalad (Heteranthera limosa); test: as above; details: 250 g ai/ha, Flood, applied to paddy water, evaluated after 13 days
Outline: as §1

rice (Oryza sativa) = test: as above; details: 250 g ai/ha, Flood, applied to paddy water, evaluated after 13 days
Outline: as §1

[3] = system: sedge, umbrella (small-flower umbrella sedge, Cyperus difformis); test: as above; details: 250 g ai/ha, Flood, applied to paddy water, evaluated after 13 days
Outline: as §1

soybean (Glycine max) [4] = test: Test A postemergence application, visual injury rating 0-100; details: Postemergence, 10 days, 0 is no effect, 100 is complete control
Outline: (§2)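 Compounds formulated in a non-phytotoxic solvent with surfactant are sprayed onto soil of freshly planted loam-sand pots ahead of emergence, or onto emerged plants 2-10 cm tall. After a 10-day greenhouse period, each species is scored visually for injury against untreated controls.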

[5] = system: galium (catchweed bedstraw, Galium aparine); test: as above; details: Postemergence, 10 days, 0 is no effect, 100 is complete control
Outline: as §2

kochia (Bassia scoparia) [6] = test: as above; details: Postemergence, 10 days, 0 is no effect, 100 is complete control
Outline: as §2

[7] = system: oat, wild (wild oat, Avena fatua); test: as above; details: Postemergence, 10 days, 0 is no effect, 100 is complete control
Outline: as §2

[8] = system: horseweed (Erigeron canadensis); test: as above; details: Postemergence, 10 days, 0 is no effect, 100 is complete control
Outline: as §2

[9] = system: ryegrass, Italian (italian ryegrass, Lolium multiflorum); test: as above; details: Postemergence, 10 days, 0 is no effect, 100 is complete control
Outline: as §2

[10] = system: green foxtail (Setaria viridis); test: as above; details: Postemergence, 10 days, 0 is no effect, 100 is complete control
Outline: as §2

[11] = system: wheat (Triticum aestivum); test: as above; details: Postemergence, 10 days, 0 is no effect, 100 is complete control
Outline: as §2

[12] = system: palmer (palmer amaranth, palmer pigweed, Amaranthus palmeri); test: as above; details: Postemergence, 10 days, 0 is no effect, 100 is complete control
Outline: as §2

[13] = system: ragweed (common ragweed, Ambrosia artemisiifolia); test: as above; details: Postemergence, 10 days, 0 is no effect, 100 is complete control
Outline: as §2

[14] = system: barnyardgrass (Echinochloa crus-galli); test: as above; details: Postemergence, 10 days, 0 is no effect, 100 is complete control
Outline: as §2

[15] = system: blackgrass (Alopecurus myosuroides); test: as above; details: Postemergence, 10 days, 0 is no effect, 100 is complete control
Outline: as §2

corn (Zea mays) [16] = test: as above; details: Postemergence, 10 days, 0 is no effect, 100 is complete control
Outline: as §2

soybean (Glycine max) [17] = test: Test A preemergence soil spray, visual injury rating 0-100; details: 10 days, 0 = no effect, 100 = complete control
Outline: as §2

kochia (Bassia scoparia) [18] = test: as above; details: 10 days, 0 = no effect, 100 = complete control
Outline: as §2

[19] = system: oat, wild (wild oat, Avena fatua); test: as above; details: 10 days, 0 = no effect, 100 = complete control
Outline: as §2

[20] = system: ryegrass, Italian (italian ryegrass, Lolium multiflorum); test: as above; details: 10 days, 0 = no effect, 100 = complete control
Outline: as §2

[21] = system: green foxtail (Setaria viridis); test: as above; details: 10 days, 0 = no effect, 100 = complete control
Outline: as §2

[22] = system: wheat (Triticum aestivum); test: as above; details: 10 days, 0 = no effect, 100 = complete control
Outline: as §2

[23] = system: palmer (palmer amaranth, palmer pigweed, Amaranthus palmeri); test: as above; details: 10 days, 0 = no effect, 100 = complete control
Outline: as §2

[24] = system: barnyardgrass (Echinochloa crus-galli); test: as above; details: 10 days, 0 = no effect, 100 = complete control
Outline: as §2

[25] = system: blackgrass (Alopecurus myosuroides); test: as above; details: 10 days, 0 = no effect, 100 = complete control
Outline: as §2

corn (Zea mays) [26] = test: as above; details: 10 days, 0 = no effect, 100 = complete control
Outline: as §2

## CC1(C(=O)NC2C=CC(C(=O)OCC#N)C2)CN(c2cc(F)cc(F)c2)C(=O)O1 (centres unmarked) [Compound 35]
[1]
  Plant response rating, Barnyardgrass (0 to 100 scale, 0 is no effect and 100 is complete control): 95
[2]
  Plant response rating, Ducksalad (0 to 100 scale, 0 is no effect and 100 is complete control): 90
Rice (Oryza sativa)
  Plant response rating, Rice (0 to 100 scale, 0 is no effect and 100 is complete control): 50
[3]
  Plant response rating, Sedge, Umbrella (0 to 100 scale, 0 is no effect and 100 is complete control): 90
Soybean (Glycine max) [4]; 125 g ai/ha
  Soybean plant response rating (0 to 100 scale): 70
Soybean (Glycine max) [4]; 500 g ai/ha
  Soybean plant response rating (0 to 100 scale): 90
[5]; 125 g ai/ha
  Galium plant response rating (0 to 100 scale): 80
[5]; 500 g ai/ha
  Galium plant response rating (0 to 100 scale): 80
Kochia (Bassia scoparia) [6]; 125 g ai/ha
  Kochia plant response rating (0 to 100 scale): 70
Kochia (Bassia scoparia) [6]; 500 g ai/ha
  Kochia plant response rating (0 to 100 scale): 70
[7]; 125 g ai/ha
  Oat, Wild plant response rating (0 to 100 scale): 100
[7]; 500 g ai/ha
  Oat, Wild plant response rating (0 to 100 scale): 100
[8]; 125 g ai/ha
  Horseweed plant response rating (0 to 100 scale): 80
[8]; 500 g ai/ha
  Horseweed plant response rating (0 to 100 scale): 90
[9]; 125 g ai/ha
  Ryegrass, Italian plant response rating (0 to 100 scale): 90
[9]; 500 g ai/ha
  Ryegrass, Italian plant response rating (0 to 100 scale): 90
[10]; 125 g ai/ha
  Foxtail, Green plant response rating (0 to 100 scale): 90
[10]; 500 g ai/ha
  Foxtail, Green plant response rating (0 to 100 scale): 90
[11]; 125 g ai/ha
  Wheat plant response rating (0 to 100 scale): 70
[11]; 500 g ai/ha
  Wheat plant response rating (0 to 100 scale): 80
[12]; 125 g ai/ha
  Amaranth, Palmer / Pigweed, Palmer plant response rating (0 to 100 scale): 80
[12]; 500 g ai/ha
  Amaranth, Palmer / Pigweed, Palmer plant response rating (0 to 100 scale): 100
[13]; 125 g ai/ha
  Ragweed plant response rating (0 to 100 scale): 70
[13]; 500 g ai/ha
  Ragweed plant response rating (0 to 100 scale): 80
[14]; 125 g ai/ha
  Barnyardgrass plant response rating (0 to 100 scale): 100
[14]; 500 g ai/ha
  Barnyardgrass plant response rating (0 to 100 scale): 100
[15]; 125 g ai/ha
  Blackgrass plant response rating (0 to 100 scale): 90
[15]; 500 g ai/ha
  Blackgrass plant response rating (0 to 100 scale): 100
Corn (Zea mays) [16]; 125 g ai/ha
  Corn plant response rating (0 to 100 scale): 100
Corn (Zea mays) [16]; 500 g ai/ha
  Corn plant response rating (0 to 100 scale): 100
Soybean (Glycine max) [17]; 125 g ai/ha
  Soybean plant response rating (0 to 100 scale): 80
Soybean (Glycine max) [17]; 500 g ai/ha
  Soybean plant response rating (0 to 100 scale): 90
Kochia (Bassia scoparia) [18]; 125 g ai/ha
  Kochia plant response rating (0 to 100 scale): 90
Kochia (Bassia scoparia) [18]; 500 g ai/ha
  Kochia plant response rating (0 to 100 scale): 90
[19]; 125 g ai/ha
  Oat, Wild plant response rating (0 to 100 scale): 90
[19]; 500 g ai/ha
  Oat, Wild plant response rating (0 to 100 scale): 90
[20]; 125 g ai/ha
  Ryegrass, Italian plant response rating (0 to 100 scale): 100
[20]; 500 g ai/ha
  Ryegrass, Italian plant response rating (0 to 100 scale): 100
[21]; 125 g ai/ha
  Foxtail, Green plant response rating (0 to 100 scale): 90
[21]; 500 g ai/ha
  Foxtail, Green plant response rating (0 to 100 scale): 100
[22]; 125 g ai/ha
  Wheat plant response rating (0 to 100 scale): 90
[22]; 500 g ai/ha
  Wheat plant response rating (0 to 100 scale): 100
[23]; 125 g ai/ha
  Amaranth, Palmer plant response rating (0 to 100 scale): 100
[23]; 500 g ai/ha
  Amaranth, Palmer plant response rating (0 to 100 scale): 100
[24]; 125 g ai/ha
  Barnyardgrass plant response rating (0 to 100 scale): 100
[24]; 500 g ai/ha
  Barnyardgrass plant response rating (0 to 100 scale): 100
[25]; 125 g ai/ha
  Blackgrass plant response rating (0 to 100 scale): 70
[25]; 500 g ai/ha
  Blackgrass plant response rating (0 to 100 scale): 90
Corn (Zea mays) [26]; 125 g ai/ha
  Corn plant response rating (0 to 100 scale): 90
Corn (Zea mays) [26]; 500 g ai/ha
  Corn plant response rating (0 to 100 scale): 100
